Reference: patent US20040132803A1, “Agent for the treatment of overactive bladder” (priority 2003, published 2004)

What was measured:
[1] = test system: spinal cord-injured rats; assay: Inhibition of detrusor hyperreflexia, cystometry in spinal cord-injured rats; format: in vivo, rat
Text: Spinal cord injury was induced in rats.

[2] = test system: dd male mice; conditions: mouse, in vivo, po, 7 days
Method: The test compound was administered orally or intraperitoneally to 3 animals per group of dd male mice (body weight, 20±1 g). Minimum lethal dose (MLD) value was obtained by observing mortality on the 7th day after the administration.

[3] = test system: Na^+ currents; assay: Voltage-clamp inward Na^+ currents in DRG cells; format: cell-based, rat
Method: (§1) Experiments were performed on adult female Sprague Dawley rats. First and second series of the experiments were performed, respectively, in unidentified DRG neurons and a specific population of DRG neurons innervating the urinary bladder. The population of DRG neurons that innervate the urinary bladder were labeled by retrograde axonal transport of the fluorescent dye, Fast Blue (4% w/v) (Polyloy, Gross Umstadt, Germany), injected into the wall of the bladder in halothane-anesthetized animals 7 days before the dissociation. The dye was injected with a 28 gauge needle at three to six sites on the dorsal surface of the organ (5-6 μL per site, total volume of 20-30 μL). Each injection site was washed with saline to minimize contamination of adjacent organs with the dye.
Freshly dissociated neurons from DRG were prepared from halothane-anesthetized animals. L6 and S1 DRG were dissected from animals and then dissociated in a shaking bath for 25 minutes at 35° C. with 5 mL DMEM (Sigma) containing 0.3 mg/mL trypsin (Type 3, Sigma), 1 mg/mL collagenase (Type 1, Sigma), and 0.1 mg/mL deoxyribonuclease (Type 4, Sigma). Trypsin inhibitor (Type 2a, Sigma) was then added thereto to neutralize the activity of trypsin. Individual DRG cell bodies were isolated by trituration and then plated on a poly-L-lysine-coated 35 mm Petri dishes.
Dye-labeled primary afferent neurons that innervate the urinary bladder were identified using an inverted phase-contrast microscope (Nikon, Tokyo, Japan) with fluorescent attachments (UV-1A filter; excitation wavelength, 365 nm). Gigaohm-seal whole-cell recordings were performed at room temperature (20-22° C.) on each labeled neuron in a culture dish that usually contained three to seven labeled cells among a few hundred unlabeled neurons. The internal solution contained (in mmol/L): KCl 140, CaCl2 1, MgCl2 2, EGTA 11, HEPES 10, Mg-ATP 2, and Tris-GTP 0.4 adjusted to pH 7.4 with KOH. Patch electrodes had resistances of 1-4 MΩ when filled with the internal solution. Neurons were superfused at a flow rate of 1.5 mL/minutes with an external solution containing (in mmol/L): NaCl 150, KCl 5, CaCl2 2.5, MgCl2 1, HEPES 10, and D-glucose 10, adjusted to pH 7.4 with NaOH. All recordings were made with an Axopatch-1D patch-clamp amplifier (Axon Instruments, Foster City, Calif.), and data were acquired and analyzed by PCLAMP software (Axon Instruments).
Inward Na^+ currents were evoked by voltage steps to +60 mV, 800 ms long from a holding potential of −90 mV. Currents were measured at the maximum (peak) and normalized to control (before addition of the compound).

[4] = test system: slowly-inactivating A-type K^+ currents; assay: Slowly-inactivating A-type K^+ currents in Fast Blue-labeled capsaicin-sensitive bladder afferent neurons; format: cell-based, rat; conditions: 1.0 × 10^−6 mol/L
Method: as §1
Freshly dissociated neurons from DRG were prepared from halothane-anesthetized animals. […]
Dye-labeled primary afferent neurons that innervate the urinary bladder were identified using an inverted phase-contrast microscope (Nikon, Tokyo, Japan) with fluorescent attachments (UV-1A filter; excitation wavelength, 365 nm). […] All recordings were made with an Axopatch-1D patch-clamp amplifier (Axon Instruments, Foster City, Calif.), and data were acquired and analyzed by PCLAMP software (Axon Instruments).
In voltage-clamp recordings, outward K^+ currents and inward Na^+ currents were measured. […]

[5] = 0.001 mg/kg p.o., after 3 hours
[6] = 0.001 mg/kg p.o., after 5 hours

Question: With `C[C@](O)(C(=O)Nc1cccc2c1C(=O)c1sccc1CS2(=O)=O)C(F)(F)F` [Compound 1, (S)-(+)-N-(5,5-dioxido-10-oxo-4,10-dihydrothieno[3,2-c][l]benzothiepin-9-yl)-3,3,3-trifluoro-2-hydroxy-2-methylpropanamide] as the compound, how does the “effect on micturition (physiological) contraction” value [1] read?
Answer: The value was “had no influence”.

Question: And the “effect on pre-micturition contraction (detrusor overactivity)” value [1]?
Answer: The value was “inhibited”.

Question: And the “micturition contraction, relative to before administration = 100” value ([1]; 0.001 mg/kg p.o., after 1 hour)?
Answer: The value was 106.5 ± 11.3%.

Question: What about the “pre-micturition contraction, relative to before administration = 100” value ([1]; 0.001 mg/kg p.o., after 1 hour) of the same compound?
Answer: Its value is 83.5 ± 6.8%.

Question: And the “micturition contraction, relative to before administration = 100” value [1, 5]?
Answer: Its value is 101.7 ± 9.5%.

Question: What about the “pre-micturition contraction, relative to before administration = 100” value [1, 5] of the same compound?
Answer: The value was 95.4 ± 12.0%.

Question: What about the “micturition contraction, relative to before administration = 100” value [1, 6] of the same compound?
Answer: The value was 103.1 ± 6.5%.

Question: What about the “pre-micturition contraction, relative to before administration = 100” value [1, 6] of the same compound?
Answer: The value was 105.5 ± 20.8%.

Question: And the “micturition contraction, relative to before administration = 100” value ([1]; 0.01 mg/kg p.o., after 1 hour)?
Answer: The value was 114.4 ± 9.5%.

Question: And the “pre-micturition contraction, relative to before administration = 100” value ([1]; 0.01 mg/kg p.o., after 1 hour)?
Answer: The value was 59.6 ± 8.1 %.

Question: What about the “micturition contraction, relative to before administration = 100” value ([1]; 0.01 mg/kg p.o., after 3 hours) of the same compound?
Answer: The value was 117.6 ± 13.9%.

Question: And the “pre-micturition contraction, relative to before administration = 100” value ([1]; 0.01 mg/kg p.o., after 3 hours)?
Answer: Its value is 51.2 ± 6.7 %.

Question: What about the “micturition contraction, relative to before administration = 100” value ([1]; 0.01 mg/kg p.o., after 5 hours) of the same compound?
Answer: Its value is 117.6 ± 12.7%.

Question: What about the “pre-micturition contraction, relative to before administration = 100” value ([1]; 0.01 mg/kg p.o., after 5 hours) of the same compound?
Answer: The value was 42.2 ± 7.2 %.

Question: And the “micturition contraction, relative to before administration = 100” value ([1]; 0.1 mg/kg p.o., after 1 hour)?
Answer: The value was 109.3 ± 6.3%.

Question: What about the “pre-micturition contraction, relative to before administration = 100” value ([1]; 0.1 mg/kg p.o., after 1 hour) of the same compound?
Answer: Its value is 52.3 ± 9.1 %.

Question: And the “micturition contraction, relative to before administration = 100” value ([1]; 0.1 mg/kg p.o., after 3 hours)?
Answer: Its value is 110.2 ± 5.4%.

Question: And the “pre-micturition contraction, relative to before administration = 100” value ([1]; 0.1 mg/kg p.o., after 3 hours)?
Answer: Its value is 33.3 ± 6.3 %.

Question: And the “micturition contraction, relative to before administration = 100” value ([1]; 0.1 mg/kg p.o., after 5 hours)?
Answer: Its value is 112.4 ± 7.0%.

Question: And the “pre-micturition contraction, relative to before administration = 100” value ([1]; 0.1 mg/kg p.o., after 5 hours)?
Answer: The value was 28.5 ± 6.2 %.

Question: What about the “Minimum lethal dose (MLD)” value [2] of the same compound?
Answer: Its value is > 1,000 mg/kg.

Question: What about the “influence upon Na^+ currents” value [3] of the same compound?
Answer: Its value is “does not exert influence”.

Question: What about the “Na^+ ion currents, normalized to control” value ([3]; 1.0 × 10^−6 mol/L) of the same compound?
Answer: The value was 0.99 ± 0.02.

Question: And the “Na^+ ion currents, normalized to control” value ([3]; 5.0 × 10^−4 mol/L)?
Answer: The value was 1.00 ± 0.01.

Question: And the “Na^+ ion currents, normalized to control” value ([3]; 5.0 × 10^−5 mol/L)?
Answer: The value was 1.00 ± 0.01.

Question: And the “Na^+ ion currents, normalized to control” value ([3]; 5.0 × 10^−6 mol/L)?
Answer: Its value is 1.00 ± 0.00.

Question: And the “Na^+ ion currents, normalized to control” value ([3]; 5.0 × 10^−7 mol/L)?
Answer: Its value is 0.99 ± 0.01.

Question: And the “Na^+ ion currents, normalized to control” value ([3]; 5.0 × 10^−8 mol/L)?
Answer: The value was 0.99 ± 0.01.

Question: What about the “A-type IK (HP: −120 mV)-(HP: −40 mV), normalized to control” value [4] of the same compound?
Answer: The value was 1.26 ± 0.03.
